Test system: Human patients with short bowel syndrome
Test: Example 1: kidney diagnostic biomarkers (urea nitrogen, creatinine, GFR) in short bowel syndrome patients, every four weeks for 24 weeks
Type: in vivo
Design: CREATININE (RATE BLANKED) Change from Baseline, Median / GFR, Median / GFR Change from Baseline, Median / UREA NITROGEN, Median / UREA NITROGEN Change from Baseline, Median: unit not given here
Conditions: for CREATININE (RATE BLANKED), Median: unit assumed
Procedure: Human patients with short bowel syndrome were divided into three groups: a control group (16 total individuals) to receive placebo, an experimental group (35 total individuals) to receive teduglutide at 0.05 mg/kg/day throughout the study, and an experimental group (32 total individuals) to receive teduglutide at 0.1 mg/kg/day throughout the study. Patients were treated by subcutaneous injection of placebo or the appropriate dose of teduglutide. As individuals with short bowel syndrome are likely to experience associated liver and kidney disease, known biomarkers of liver and kidney function were monitored every four weeks, for 24 weeks. The liver biomarkers tested included total bilirubin, ALT and AST and ALP. The kidney biomarkers tested included urea nitrogen, creatinine and GFR. Before administration of placebo or teduglutide, diagnostic biomarker levels were tested to establish a baseline for each individual.
To visualize the effect of GLP-2 on the levels of the diagnostic biomarkers, the average change from baseline was calculated for the placebo and teduglutide treated groups for each visit after a baseline was established. The average change from baseline of each group is depicted in FIGS. […]. The numerical figures for each diaanostic biomarker at each time point are depicted in Table 1.
The raw data for this sorting is reproduced in Table 2 below.

[1] = Week 4, range <−5%, teduglutide 0.05 mg/kg/day
[2] = Week 4, range <−5%, teduglutide 0.1 mg/kg/day
[3] = Week 4, range >5%, teduglutide 0.05 mg/kg/day
[4] = Week 4, range >5%, teduglutide 0.1 mg/kg/day
[5] = Week 4, range −5%<= and <=5%, teduglutide 0.05 mg/kg/day
[6] = Week 4, range −5%<= and <=5%, teduglutide 0.1 mg/kg/day
[7] = Week 8, range <−5%, teduglutide 0.05 mg/kg/day
[8] = Week 8, range <−5%, teduglutide 0.1 mg/kg/day
[9] = Week 8, range >5%, teduglutide 0.05 mg/kg/day
[10] = Week 8, range >5%, teduglutide 0.1 mg/kg/day
[11] = Week 8, range −5%<= and <=5%, teduglutide 0.05 mg/kg/day
[12] = Week 8, range −5%<= and <=5%, teduglutide 0.1 mg/kg/day
[13] = Week 12, range <−5%, teduglutide 0.05 mg/kg/day
[14] = Week 12, range <−5%, teduglutide 0.1 mg/kg/day
[15] = Week 12, range >5%, teduglutide 0.05 mg/kg/day

CC[C@H](C)[C@H](NC(=O)[C@H](Cc1ccccc1)NC(=O)[C@H](CC(=O)O)NC(=O)[C@H](CCCNC(=N)N)NC(=O)[C@H](C)NC(=O)[C@H](C)NC(=O)[C@H](CC(C)C)NC(=O)[C@H](CC(N)=O)NC(=O)[C@H](CC(=O)O)NC(=O)[C@H](CC(C)C)NC(=O)[C@@H](NC(=O)[C@@H](NC(=O)[C@H](CC(N)=O)NC(=O)[C@H](CCSC)NC(=O)[C@H](CCC(=O)O)NC(=O)[C@H](CC(=O)O)NC(=O)[C@H](CO)NC(=O)[C@H](Cc1ccccc1)NC(=O)[C@H](CO)NC(=O)CNC(=O)[C@H](CC(=O)O)NC(=O)CNC(=O)[C@@H](N)Cc1c[nH]cn1)[C@@H](C)O)[C@@H](C)CC)C(=O)N[C@@H](CC(N)=O)C(=O)N[C@@H](Cc1c[nH]c2ccccc12)C(=O)N[C@@H](CC(C)C)C(=O)N[C@H](C(=O)N[C@@H](CCC(N)=O)C(=O)N[C@H](C(=O)N[C@@H](CCCCN)C(=O)N[C@H](C(=O)N[C@H](C(=O)N[C@@H](CC(=O)O)C(=O)O)[C@@H](C)O)[C@@H](C)CC)[C@@H](C)O)[C@@H](C)CC [teduglutide]
GFR, Median (0.10 mg/kg/day, DW20): 76.1
UREA NITROGEN Change from Baseline, Mean (SD) (0.10 mg/kg/day, DW20): −0.0 (1.60)
UREA NITROGEN Change from Baseline, Median (0.10 mg/kg/day, DW20): −0.1
UREA NITROGEN, Mean (SD) (0.10 mg/kg/day, DW20): 6.3 (1.91)
UREA NITROGEN, Median (0.10 mg/kg/day, DW20): 6.0
CREATININE (RATE BLANKED), Median (0.10 mg/kg/day, DW20): 88 µmol/L
CREATININE (RATE BLANKED) Change from Baseline, Mean (SD) (0.10 mg/kg/day, DW24): −2.0 (13.18)
CREATININE (RATE BLANKED) Change from Baseline, Median (0.10 mg/kg/day, DW24): 0.0
CREATININE (RATE BLANKED), Mean (SD) (0.10 mg/kg/day, DW24): 82.0 (22.35)
GFR Change from Baseline, Mean (SD) (0.10 mg/kg/day, DW24): 4.6 (16.73)
GFR Change from Baseline, Median (0.10 mg/kg/day, DW24): 2.3
GFR, Mean (SD) (0.10 mg/kg/day, DW24): 82.4 (27.05)
GFR, Median (0.10 mg/kg/day, DW24): 81.1
UREA NITROGEN Change from Baseline, Mean (SD) (0.10 mg/kg/day, DW24): −0.2 (1.87)
UREA NITROGEN Change from Baseline, Median (0.10 mg/kg/day, DW24): 0.3
UREA NITROGEN, Mean (SD) (0.10 mg/kg/day, DW24): 6.1 (1.98)
UREA NITROGEN, Median (0.10 mg/kg/day, DW24): 5.9
CREATININE (RATE BLANKED), Median (0.10 mg/kg/day, DW24): 81 µmol/L
CREATININE (RATE BLANKED) change from baseline: patients in range, n(%) [1]: 7(20.0%)
GFR change from baseline: patients in range, n(%) [1]: 13(37.1%)
UREA NITROGEN change from baseline: patients in range, n(%) [1]: 16(45.7%)
CREATININE (RATE BLANKED) change from baseline: patients in range, n(%) [2]: 12(37.5%)
GFR change from baseline: patients in range, n(%) [2]: 7(21.9%)
UREA NITROGEN change from baseline: patients in range, n(%) [2]: 10(31.3%)
CREATININE (RATE BLANKED) change from baseline: patients in range, n(%) [3]: 14(40.0%)
GFR change from baseline: patients in range, n(%) [3]: 8(22.9%)
UREA NITROGEN change from baseline: patients in range, n(%) [3]: 7(20.0%)
CREATININE (RATE BLANKED) change from baseline: patients in range, n(%) [4]: 7(21.9%)
GFR change from baseline: patients in range, n(%) [4]: 14(43.8%)
UREA NITROGEN change from baseline: patients in range, n(%) [4]: 15(46.9%)
CREATININE (RATE BLANKED) change from baseline: patients in range, n(%) [5]: 9(25.7%)
GFR change from baseline: patients in range, n(%) [5]: 9(25.7%)
UREA NITROGEN change from baseline: patients in range, n(%) [5]: 7(20.0%)
CREATININE (RATE BLANKED) change from baseline: patients in range, n(%) [6]: 13(40.6%)
GFR change from baseline: patients in range, n(%) [6]: 11(34.4%)
UREA NITROGEN change from baseline: patients in range, n(%) [6]: 7(21.9%)
CREATININE (RATE BLANKED) change from baseline: patients in range, n(%) [7]: 11(31.4%)
GFR change from baseline: patients in range, n(%) [7]: 9(25.7%)
UREA NITROGEN change from baseline: patients in range, n(%) [7]: 14(40.0%)
CREATININE (RATE BLANKED) change from baseline: patients in range, n(%) [8]: 8(25.0%)
GFR change from baseline: patients in range, n(%) [8]: 9(28.1%)
UREA NITROGEN change from baseline: patients in range, n(%) [8]: 9(28.1%)
CREATININE (RATE BLANKED) change from baseline: patients in range, n(%) [9]: 10(28.6%)
GFR change from baseline: patients in range, n(%) [9]: 12(34.3%)
UREA NITROGEN change from baseline: patients in range, n(%) [9]: 10(28.6%)
CREATININE (RATE BLANKED) change from baseline: patients in range, n(%) [10]: 13(40.6%)
GFR change from baseline: patients in range, n(%) [10]: 9(28.1%)
UREA NITROGEN change from baseline: patients in range, n(%) [10]: 15(46.9%)
CREATININE (RATE BLANKED) change from baseline: patients in range, n(%) [11]: 8(22.9%)
GFR change from baseline: patients in range, n(%) [11]: 7(20.0%)
UREA NITROGEN change from baseline: patients in range, n(%) [11]: 5(14.3%)
CREATININE (RATE BLANKED) change from baseline: patients in range, n(%) [12]: 10(31.3%)
GFR change from baseline: patients in range, n(%) [12]: 13(40.6%)
UREA NITROGEN change from baseline: patients in range, n(%) [12]: 7(21.9%)
CREATININE (RATE BLANKED) change from baseline: patients in range, n(%) [13]: 7(20.0%)
GFR change from baseline: patients in range, n(%) [13]: 15(42.9%)
UREA NITROGEN change from baseline: patients in range, n(%) [13]: 17(48.6%)
CREATININE (RATE BLANKED) change from baseline: patients in range, n(%) [14]: 9(28.1%)
GFR change from baseline: patients in range, n(%) [14]: 11(34.4%)
UREA NITROGEN change from baseline: patients in range, n(%) [14]: 13(40.6%)
CREATININE (RATE BLANKED) change from baseline: patients in range, n(%) [15]: 16(45.7%)
GFR change from baseline: patients in range, n(%) [15]: 6(17.1%)
UREA NITROGEN change from baseline: patients in range, n(%) [15]: 6(17.1%)
